Results published in paper PMC9732455, “PCW-A1001, AI-assisted de novo design approach to design a selective inhibitor for FLT-3(D835Y) in acute myeloid leukemia” (Frontiers in Molecular Biosciences, 2022).

Columns and labels:
FLT-3 WT = molecular target: T1, FLT-3 WT (Homo sapiens, UniProt P36888); test: in vitro kinase assay (ThermoFisher), dose-response; type: biochemical
T1 construct: gene FLT3
T1 sequence (P36888 27-993): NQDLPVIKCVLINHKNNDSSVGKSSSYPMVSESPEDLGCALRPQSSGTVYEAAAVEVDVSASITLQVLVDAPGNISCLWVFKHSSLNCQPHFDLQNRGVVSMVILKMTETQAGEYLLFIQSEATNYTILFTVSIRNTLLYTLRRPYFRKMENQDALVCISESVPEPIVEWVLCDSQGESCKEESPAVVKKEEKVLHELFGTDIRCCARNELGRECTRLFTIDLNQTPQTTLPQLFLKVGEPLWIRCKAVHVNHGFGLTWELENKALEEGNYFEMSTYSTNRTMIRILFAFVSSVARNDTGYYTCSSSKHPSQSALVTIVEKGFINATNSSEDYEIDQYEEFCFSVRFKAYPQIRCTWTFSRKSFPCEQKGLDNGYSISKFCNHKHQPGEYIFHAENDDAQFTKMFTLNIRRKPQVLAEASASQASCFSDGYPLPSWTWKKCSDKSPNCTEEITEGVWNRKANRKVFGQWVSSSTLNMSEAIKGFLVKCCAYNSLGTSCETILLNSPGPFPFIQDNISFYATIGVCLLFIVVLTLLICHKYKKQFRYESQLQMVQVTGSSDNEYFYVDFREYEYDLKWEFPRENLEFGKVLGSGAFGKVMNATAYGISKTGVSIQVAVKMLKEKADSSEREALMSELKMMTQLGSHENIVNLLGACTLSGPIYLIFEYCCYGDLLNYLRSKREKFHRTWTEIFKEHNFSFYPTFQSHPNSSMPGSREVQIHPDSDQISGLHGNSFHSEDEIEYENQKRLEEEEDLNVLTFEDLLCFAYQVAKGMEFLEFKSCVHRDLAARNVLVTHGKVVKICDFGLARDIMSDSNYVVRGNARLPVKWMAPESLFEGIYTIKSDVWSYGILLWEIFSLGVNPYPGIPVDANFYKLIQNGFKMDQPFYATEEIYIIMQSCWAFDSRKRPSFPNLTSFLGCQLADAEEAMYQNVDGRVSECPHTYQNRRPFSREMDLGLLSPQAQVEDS

FLT-3 (D835Y) = molecular target: T2, FLT-3 (D835Y) (Homo sapiens, UniProt P36888, D835Y); test: as above; type: biochemical
T2 construct: gene FLT3
T2 sequence (P36888 564-993 D835Y limits assumed): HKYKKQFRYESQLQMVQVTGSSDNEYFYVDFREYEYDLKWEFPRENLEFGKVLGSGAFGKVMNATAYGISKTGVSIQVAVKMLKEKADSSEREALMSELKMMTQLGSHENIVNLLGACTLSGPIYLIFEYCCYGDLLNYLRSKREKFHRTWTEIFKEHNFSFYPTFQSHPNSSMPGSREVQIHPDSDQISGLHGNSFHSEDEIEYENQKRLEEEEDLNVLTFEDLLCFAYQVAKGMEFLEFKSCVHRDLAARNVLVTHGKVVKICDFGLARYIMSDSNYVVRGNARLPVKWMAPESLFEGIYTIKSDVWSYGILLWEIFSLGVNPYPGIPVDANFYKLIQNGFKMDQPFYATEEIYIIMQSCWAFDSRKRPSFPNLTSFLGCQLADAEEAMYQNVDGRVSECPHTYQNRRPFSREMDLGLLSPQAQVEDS

Structure (SMILES): CC(C)(C)c1ccc(C(=O)Nc2ccc(C(N)=O)c(NC3CCCNC3)c2)cc1 (centres unmarked) [PCW-A1001]
- IC50 (FLT-3 WT): 2540 nM
- IC50 (FLT-3 (D835Y)): 764 nM
